Measurements: the supplement of paper PMC10307832

Columns and labels:
Assay in all cases: relative viability (nuclei count vs DMSO), 5 days (fraction); higher = more cells survive
[1] = compound: CC(=O)Nc1cccc(-n2c(=O)n(C3CC3)c(=O)c3c(Nc4ccc(I)cc4F)n(C)c(=O)c(C)c32)c1 [Trametinib] + COc1cc2c(Oc3ccc(NC(=O)C4(C(=O)Nc5ccc(F)cc5)CC4)cc3F)ccnc2cc1OCCCN1CCOCC1 [Foretinib] (partner 0.25 µM)
Procedure, shortened: (§1)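 Relative viability is defined as nuclei in treated wells over nuclei in vehicle wells. Duplicate plates were run and medians reported. Lung cancer cell lines in 1536-well plates were dosed by pin tool one day after seeding, with one drug or with a fixed anchor-drug dose plus five library-drug doses (not always all listed) in √10 steps, and nuclei were counted after 5 days.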

[2] = compound: CN1C=C(C2=CC=CC=C21)/C=C\3/C4=C(C=CC=N4)NC3=O + Cc1nc(NC(=O)N2CCC[C@H]2C(N)=O)sc1-c1ccnc(C(C)(C)C(F)(F)F)c1 [Alpelisib] (partner 2 µM)
Procedure, shortened: as §1

[3] = compound: CC(=O)Nc1cccc(-n2c(=O)n(C3CC3)c(=O)c3c(Nc4ccc(I)cc4F)n(C)c(=O)c(C)c32)c1 [Trametinib] + CC1(C)CCC(c2ccc(Cl)cc2)=C(CN2CCN(c3ccc(C(=O)NS(=O)(=O)c4ccc(N[C@H](CCN5CCOCC5)CSc5ccccc5)c(S(=O)(=O)C(F)(F)F)c4)cc3)CC2)C1 [Navitoclax] (partner 0.5 µM)
Procedure, shortened: as §1

[4] = compound: CN1C=C(C2=CC=CC=C21)/C=C\3/C4=C(C=CC=N4)NC3=O + Cc1cc(Nc2cc(N3CCN(C)CC3)nc(Sc3ccc(NC(=O)C4CC4)cc3)n2)n[nH]1 [Tozasertib] (partner 0.1 µM)
Procedure, shortened: as §1

Row | Cell Line | relative viability ([1]; first compound 0.0025 µM) | relative viability ([1]; first compound 0.007906 µM) | relative viability ([1]; first compound 0.025 µM) | relative viability ([1]; first compound 0.07906 µM) | relative viability ([1]; first compound 0.25 µM) | relative viability ([2]; first compound 0.02 µM) | relative viability ([2]; first compound 0.06325 µM) | relative viability ([2]; first compound 0.2 µM) | relative viability ([2]; first compound 2 µM) | relative viability ([3]; first compound 0.0025 µM) | relative viability ([3]; first compound 0.007906 µM) | relative viability ([3]; first compound 0.025 µM) | relative viability ([3]; first compound 0.07906 µM) | relative viability ([3]; first compound 0.25 µM) | relative viability ([4]; first compound 0.02 µM) | relative viability ([4]; first compound 0.06325 µM) | relative viability ([4]; first compound 0.2 µM) | relative viability ([4]; first compound 0.6325 µM) | relative viability ([4]; first compound 2 µM) | relative viability ([2]; first compound 0.6325 µM)
1 | NCI-H460 | 0.942 | 0.816 | 0.549 | 0.21 | 0.11 | 0.539 | 0.466 | 0.53 | 0.391 | 1.08 | 0.981 | 0.727 | 0.277 | 0.0346 | 0.458 | 0.403 | 0.448 | 0.363 | 0.0797 | –
2 | EMC-BAC-2 | 0.917 | 0.885 | 0.782 | 0.907 | 0.68 | 0.673 | 0.452 | 0.736 | 0.799 | 1.07 | 0.956 | 1.06 | 0.891 | 0.817 | 0.315 | 0.295 | 0.301 | 0.281 | 0.374 | 0.768
3 | CAL-12T | 0.969 | 0.893 | 0.716 | 0.499 | 0.489 | 1.47 | 0.924 | 1.1 | 1.06 | 1.04 | 0.831 | 0.554 | 0.738 | 0.492 | 0.343 | 0.255 | 0.247 | 0.324 | 0.206 | 1.16
4 | COR-L 105 | 0.815 | 1.19 | 0.489 | 0.552 | 0.374 | 0.907 | 0.898 | 0.922 | 0.874 | 0.594 | 0.517 | 0.417 | 0.387 | 0.324 | 0.311 | 0.311 | 0.378 | 0.364 | 0.36 | 1.01
5 | NCI-H1944 | 0.811 | 0.634 | 0.572 | 0.461 | 0.341 | 0.721 | 0.789 | – | 0.748 | 0.916 | 0.71 | 0.544 | 0.664 | 0.49 | 0.234 | 0.246 | – | 0.234 | 0.21 | 0.833
6 | NCI-H2009 | 1.05 | 0.708 | 0.351 | 0.279 | 0.302 | 1.2 | 1.14 | 1.22 | 1.05 | 0.986 | 0.527 | 0.537 | 0.531 | 0.403 | 0.73 | 0.613 | 0.741 | 0.859 | 0.831 | 1.24
7 | NCI-H441 | 1.03 | 1.01 | 0.699 | 0.742 | 0.703 | 0.795 | – | 0.898 | 0.881 | 0.761 | 0.633 | 0.572 | 0.312 | 0.278 | 0.67 | 0.607 | 0.651 | 0.572 | 0.567 | 0.91
